# Test results as given in patent US20200207734A1, “HETEROCYCLIC COMPOUND AND USE THEREOF” (Takeda Pharmaceutical Company Limited, priority 2017, published 2020).
# Molecular target: T1, human orexin type 2 receptor (Homo sapiens, UniProt O43614)
# T1 construct: human orexin type 2 receptor cDNA was inserted into pcDNA3.1(+) plasmid vector (Invitrogen); expressed in transfected cells
# T1 sequence (O43614 1-444): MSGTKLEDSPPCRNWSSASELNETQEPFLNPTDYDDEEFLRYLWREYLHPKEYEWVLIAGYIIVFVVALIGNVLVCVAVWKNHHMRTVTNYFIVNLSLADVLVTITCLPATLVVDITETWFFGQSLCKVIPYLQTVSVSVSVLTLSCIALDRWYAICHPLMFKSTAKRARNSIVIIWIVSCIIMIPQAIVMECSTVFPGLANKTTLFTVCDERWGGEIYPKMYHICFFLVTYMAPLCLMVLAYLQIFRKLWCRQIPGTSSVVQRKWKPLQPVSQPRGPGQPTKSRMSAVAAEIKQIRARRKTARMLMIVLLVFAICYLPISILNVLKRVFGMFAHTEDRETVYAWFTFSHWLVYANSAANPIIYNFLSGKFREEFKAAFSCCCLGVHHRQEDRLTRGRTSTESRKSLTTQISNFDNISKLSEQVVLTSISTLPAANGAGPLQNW
# Test: Measurement of orexin type 2 receptor agonist activity (calcium fluorescence, CHO cells expressing hOX2R)
# Format: cell-based
# Details: test compound 3 μM; CHO cells expressing human OX2 receptor; DMSO = 0%, orexin A (human) = 100%
# Source text: To obtain a cell clone stably expressing human orexin type 2 receptor, human orexin type 2 receptor cDNA was inserted into pcDNA3.1(+) plasmid vector (Invitrogen), and a plasmid DNA for expression of human orexin type 2 receptor (pcDNA3.1(+)/hOX2R) was cloned. The plasmid DNA was introduced into CHO-dhfr cell by an electroporation method, and human orexin type 2 receptor expressing clone cells were obtained by limiting dilution method by using G418 drug resistance as a selection marker.
# CHO cells forcibly expressing human OX2 receptor were seeded in each well of 384 well black transparent bottom plate (BD Falcon) at 7,500 cells/well, and cultured for one day in a 5% CO2 incubator at 37° C. After removal of the medium in the cell plate, assay buffer A containing a calcium indicator (HBSS (Thermo Fisher Scientific), 20 mM HEPES (Thermo Fisher Scientific), 0.1% BSA (Wako Pure Chemical Industries, Ltd. or Sigma-Aldrich), 2.5 μg/mL Fluo-4 AM (DOJINDO Chemical), 0.08% Pluronic F127 (DOJINDO Chemical), 1.25 mM probenecid (DOJINDO Chemical)) was added at 30 μL/well. The plate was stood for 30 min in a 5% CO2 incubator at 37° C., and further stood at room temperature for 30 min. A test compound prepared by diluting with assay buffer B (HBSS, 20 mM HEPES, 0.1% BSA) was added at 10 μL/well, and the fluorescence value was measured by FDSSμCELL (Hamamatsu Photonics K.K.) every one sec for 1 min, and thereafter every two sec for 1 min 40 sec. The activity (%) of the test compound was calculated assuming that variation in the fluorescence value when DMSO was added instead of the test compound was 0%, and variation in the fluorescence value when orexin A (human) (PEPTIDE INSTITUTE, INC.) was added at the final concentration of 10 nM was 100%.
row,Structure (SMILES),"OX2R agonist activity (3 μM, %)"
1,"CC(C)OC(=O)N1CCC[C@H](NS(C)(=O)=O)[C@@H]1Cc1cccc2c1oc1ccccc12 (relative stereo) [Example 78, isopropyl cis-2-(dibenzo[b,d]furan-4-ylmethyl)-3-((methylsulfonyl)amino)piperidine-1-carboxylate]",35%
2,"CC(C)OC(=O)N1CCC[C@H](NS(C)(=O)=O)[C@@H]1Cc1csc(-c2ccccc2)n1 (relative stereo) [Example 89, isopropyl cis-3-((methylsulfonyl)amino)-2-((2-phenyl-1,3-thiazol-4-yl)methyl)piperidine-1-carboxylate]",96%
3,"CS(=O)(=O)N[C@H]1CCCN(C(=O)C2CC2)[C@H]1Cc1cccc(-c2ccccc2)c1 (relative stereo) [Example 93, N-(cis-2-(biphenyl-3-ylmethyl)-1-(cyclopropylcarbonyl)piperidin-3-yl)methanesulfonamide]",101%
4,"CC(C)C(=O)N1CCC[C@H](NS(C)(=O)=O)[C@@H]1Cc1cccc(-c2ccccc2)c1 (relative stereo) [Example 95, N-(cis-2-(biphenyl-3-ylmethyl)-1-isobutyrylpiperidin-3-yl)methanesulfonamide]",97%
5,"CC(C)OC(=O)N1CCC[C@H](NS(C)(=O)=O)[C@@H]1Cc1cccc(-c2cc(F)ccc2F)n1 (relative stereo) [Example 100, isopropyl cis-2-((6-(2,5-difluorophenyl)pyridin-2-yl)methyl)-3-((methylsulfonyl)amino)piperidine-1-carboxylate]",107%
6,"CS(=O)(=O)N[C@H]1CCN(C(=O)OC2CC2)[C@H]1Cc1cccc(-c2ccccc2)c1 (relative stereo) [Example 108, cyclopropyl cis-2-(biphenyl-3-ylmethyl)-3-((methylsulfonyl)amino)pyrrolidine-1-carboxylate]",69%
7,"CC(C)OC(=O)N1CCC[C@H](NS(C)(=O)=O)[C@@H]1Cc1cccc(-c2cccc(F)c2F)c1 (relative stereo) [Example 116, isopropyl cis-2-((2′,3′-difluorobiphenyl-3-yl)methyl)-3-((methylsulfonyl)amino)piperidine-1-carboxylate]",106%
8,"CC(C)OC(=O)N1CCC[C@H](NS(C)(=O)=O)[C@@H]1Cn1ccc(-c2ccccc2)n1 (relative stereo) [Example 122, isopropyl cis-3-((methylsulfonyl)amino)-2-((3-phenyl-1H-pyrazol-1-yl)methyl)piperidine-1-carboxylate]",82%
9,"CS(=O)(=O)N[C@H]1CCCN(C(=O)OC2CC2)[C@H]1Cc1cccc(-c2ccccc2)c1 (relative stereo) [Example 126, cyclopropyl cis-2-(biphenyl-3-ylmethyl)-3-((methylsulfonyl)amino)piperidine-1-carboxylate]",90%
10,"CS(=O)(=O)N[C@H]1CCCN(C(=O)Oc2ccccc2)[C@H]1Cc1cccc(-c2ccccc2)c1 (relative stereo) [Example 145, phenyl cis-2-(biphenyl-3-ylmethyl)-3-((methylsulfonyl)amino)piperidine-1-carboxylate]",24%
11,"COC(=O)N1CCC[C@H](NS(C)(=O)=O)[C@@H]1Cc1cccc(-c2ccsc2)c1 (relative stereo) [Example 159, methyl cis-3-((methylsulfonyl)amino)-2-(3-(3-thienyl)benzyl)piperidine-1-carboxylate]",65%
12,"CCCS(=O)(=O)N[C@H]1CCCN(C(=O)OC(C)C)[C@H]1Cc1cccc(-c2ccccc2)n1 (relative stereo) [Example 173, isopropyl cis-2-((6-phenylpyridin-2-yl)methyl)-3-((propylsulfonyl)amino)piperidine-1-carboxylate]",68%
